Patent US12391697B2, “Condensed bi-heterocycles as inhibiting agents for Bruton's tyrosine kinase” (BIOGEN MA INC., priority 2019, dated 2025)
Structures can show the parent of a compound that is named as a salt. Where two headings read alike, the source gives them in different places.

How the values were obtained:
[1] = biological target: BTK (Homo sapiens (Human), UniProt Q06187); experiment: In Vitro BTK Kinase Assay: Btk-PolyGAT-LS Assay; assay type: biochemical; settings: active BTK enzyme 0.25 nM, ATP 10 μM, polyGAT 100 nM, 30 minutes
Sequence of BTK (Q06187 whole entry): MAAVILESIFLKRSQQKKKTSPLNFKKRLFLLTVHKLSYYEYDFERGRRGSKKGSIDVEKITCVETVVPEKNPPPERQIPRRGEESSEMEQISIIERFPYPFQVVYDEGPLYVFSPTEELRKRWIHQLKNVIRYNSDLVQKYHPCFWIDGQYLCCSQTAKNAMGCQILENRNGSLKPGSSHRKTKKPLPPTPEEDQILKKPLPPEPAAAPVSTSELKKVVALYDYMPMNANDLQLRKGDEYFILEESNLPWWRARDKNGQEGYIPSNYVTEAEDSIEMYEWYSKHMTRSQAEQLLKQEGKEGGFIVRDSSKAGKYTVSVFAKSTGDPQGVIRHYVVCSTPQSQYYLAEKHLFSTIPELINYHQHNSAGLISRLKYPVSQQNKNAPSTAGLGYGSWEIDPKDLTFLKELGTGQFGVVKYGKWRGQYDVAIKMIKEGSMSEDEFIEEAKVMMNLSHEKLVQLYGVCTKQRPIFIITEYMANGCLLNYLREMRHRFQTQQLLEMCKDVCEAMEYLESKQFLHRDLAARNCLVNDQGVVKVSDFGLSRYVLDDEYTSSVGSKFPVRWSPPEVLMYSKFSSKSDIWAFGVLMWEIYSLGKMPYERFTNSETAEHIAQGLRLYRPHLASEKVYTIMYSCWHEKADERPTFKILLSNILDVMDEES
Outline: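 Recombinant BTK (0.25 nM) phosphorylating 100 nM polyGAT at 10 μM ATP in Tris-HCl pH 7.5 buffer with MgCl2, DTT, Triton X-100 and casein, 30 min, then EDTA stop.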

[2] = system: CD69 expression on CD19+ B cells in whole blood; experiment: In Vitro Whole Blood CD69 Assay; assay type: cell-based, Human; settings: human heparinized whole blood, anti-human IgD stimulation, percentage of CD19+ B cells expressing CD69, read-out: IC50
Experimental: In Vitro Whole Blood CD69 Assay
Human heparinized venous blood from health donors was aliquoted into 96-well plate and “spiked” with serial dilutions of formula I compounds in DMSO or with DMSO without drug. The final concentration of DMSO in all wells was 0.1%. The plate was incubated at 37° C. for 30 min. Drug-containing samples were stimulated with 0.1 μg/mL mouse anti-human IgD-dextran (1A62) or 20 μg/mL polyclonal rabbit F(ab′)2 anti-human IgD. Phosphate-buffered saline (PBS) was added to the negative control unstimulated sample and the plates were incubated overnight (18 to 22 hours) at 37° C. Cells were stained with fluorochrome-conjugated anti-CD19 and anti-CD69 antibodies. Lyse/fix solution was used to remove red blood cells by hypotonic lysis and to fix the remaining cells, which were then analyzed by flow cytometry. CD19+ B cells were gated and analyzed for CD69 expression. The percentage of B cells expressing CD69 was plotted versus the log 10 of the concentration of the drug and the best-fit curves (variable Hill slope) were generated to obtain the IC50 value.

| Compound | IC50 [1] | IC50 ([2]; Homo sapiens, B-cell) | IC50 [2] |
| --- | --- | --- | --- |
| Cc1c([C@@H](C)NC(=O)c2noc(C(C)(C)C)n2)ccc(-c2ncnn3cc(N4CCOCC4)cc23)c1F [Example 31, (R)-5-(tert-butyl)-N-(1-(3-fluoro-2-methyl-4-(6-morpholinopyrrolo[2,1-f][1,2,4]triazin-4-yl)phenyl)ethyl)-1,2,4-oxadiazole-3-carboxamide] | ≤ 1 nM | 100 to 1000 nM | – |
| Cc1cc(-c2ncnn3cc(N4CCC(F)(F)C4)cc23)ccc1CNC(=O)c1noc(C(C)(C)C)n1 [Example 12, 5-(tert-butyl)-N-(4-(6-(3,3-difluoropyrrolidin-1-yl)pyrrolo[2,1-f][1,2,4]triazin-4-yl)-2-methylbenzyl)-1,2,4-oxadiazole-3-carboxamide trifluoroacetate] | ≤ 1 nM | 100 to 1000 nM | – |
| Cc1cc(-c2ncnn3cc(N4CCC(F)C4)cc23)ccc1CNC(=O)c1noc(C(C)(C)C)n1 (centres unmarked) [Example 11, 5-(tert-butyl)-N-(4-(6-(3-fluoropyrrolidin-1-yl)pyrrolo[2,1-f][1,2,4]triazin-4-yl)-2-methylbenzyl)-1,2,4-oxadiazole-3-carboxamide trifluoroacetate] | ≤ 1 nM | 100 to 1000 nM | – |
| COC1CN(c2cc3c(-c4ccc(CNC(=O)c5noc(C(C)(C)C)n5)c(C)c4)ncnn3c2)C1 [Example 8, 5-(tert-butyl)-N-(4-(6-(3-methoxyazetidin-1-yl)pyrrolo[2,1-f][1,2,4]triazin-4-yl)-2-methylbenzyl)-1,2,4-oxadiazole-3-carboxamide] | ≤ 1 nM | 100 to 1000 nM | – |
| Cc1cc(-c2ncnn3cc(-c4cnn(CC(F)F)c4)cc23)ccc1CNC(=O)c1noc(C(C)(C)C)n1 [Example 10, 5-(tert-butyl)-N-(4-(6-(1-(2,2-difluoroethyl)-1H-pyrazol-4-yl)pyrrolo[2,1-f][1,2,4]triazin-4-yl)-2-methylbenzyl)-1,2,4-oxadiazole-3-carboxamide trifluoroacetate] | ≤ 1 nM | 100 to 1000 nM | – |
| Cc1cc(-c2ncnn3cc(N4C[C@H](C)O[C@@H](C)C4)cc23)ccc1CNC(=O)c1noc(C(C)(C)C)n1 (single isomer, unassigned) [Example 44, hydrochloride] | ≤ 1 nM | 100 to 1000 nM | – |
| COc1cc(-c2ncnn3cc(-c4cnn(C)c4)cc23)ccc1CNC(=O)c1noc(C(C)(C)C)n1 [Example 35, 5-(tert-butyl)-N-(2-methoxy-4-(6-(1-methyl-1H-pyrazol-4-yl)pyrrolo[2,1-f][1,2,4]triazin-4-yl)benzyl)-1,2,4-oxadiazole-3-carboxamide hydrochloride] | ≤ 1 nM | 100 to 1000 nM | – |
| CC(C)(C)c1nc(C(=O)N[C@@H]2CCCCc3c2ccc(-c2ncnn4cccc24)c3F)no1 [Example 56, (R)-5-(tert-butyl)-N-(1-fluoro-2-(pyrrolo[2,1-f][1,2,4]triazin-4-yl)-6,7,8,9-tetrahydro-5H-benzo[7]annulen-5-yl)-1,2,4-oxadiazole-3-carboxamide hydrochloride] | ≤ 1 nM | 100 to 1000 nM | – |
| Cc1c(CNC(=O)c2nc(C(C)(C)C)no2)ccc(-c2ncnn3cc(N4CCN(C)[C@@H](C)C4)cc23)c1F (single isomer, unassigned) [Example 26] | ≤ 1 nM | 100 to 1000 nM | – |
| Cc1c(CNC(=O)c2noc(C(C)(C)CF)n2)ccc(-c2ncnn3cc(-c4cnn(C)c4)cc23)c1F [Example 33, N-(3-fluoro-2-methyl-4-(6-(1-methyl-1H-pyrazol-4-yl)pyrrolo[2,1-f][1,2,4]triazin-4-yl)benzyl)-5-(1-fluoro-2-methylpropan-2-yl)-1,2,4-oxadiazole-3-carboxamide] | ≤ 1 nM | 100 to 1000 nM | – |
| Cc1cc(-c2ncnn3cc(-c4ccncc4)cc23)ccc1CNC(=O)c1noc(C(C)(C)C)n1 [Example 38, 5-(tert-butyl)-N-(2-methyl-4-(6-(pyridin-4-yl)pyrrolo[2,1-f][1,2,4]triazin-4-yl)benzyl)-1,2,4-oxadiazole-3-carboxamide] | ≤ 1 nM | 100 to 1000 nM | – |
| Cc1cc(-c2ncnn3cc(C4=CCOCC4)cc23)ccc1CNC(=O)c1noc(C(C)(C)C)n1 [Example 6, 5-(tert-butyl)-N-(4-(6-(3,6-dihydro-2H-pyran-4-yl)pyrrolo[2,1-f][1,2,4]triazin-4-yl)-2-methylbenzyl)-1,2,4-oxadiazole-3-carboxamide] | ≤ 1 nM | 100 to 1000 nM | < 100 nM |
| Cn1cc(-c2cc3c(-c4ccc(CNC(=O)c5noc(C(C)(C)C)n5)c(C(F)F)c4F)ncnn3c2)cn1 [Example 36, 5-(tert-butyl)-N-(2-(difluoromethyl)-3-fluoro-4-(6-(1-methyl-1H-pyrazol-4-yl)pyrrolo[2,1-f][1,2,4]triazin-4-yl)benzyl)-1,2,4-oxadiazole-3-carboxamide hydrochloride] | ≤ 1 nM | 100 to 1000 nM | – |
| CO[C@@H]1CCN(c2cc3c(-c4ccc(CNC(=O)c5nc(C(C)(C)C)no5)c(C)c4)ncnn3c2)C1 (single isomer, unassigned) [Example 24] | ≤ 1 nM | 100 to 1000 nM | – |
| Cc1cc(-c2ncnn3cc(-c4cnn(C)c4)cc23)ccc1[C@@H](C)NC(=O)c1nc(C(C)(C)C)no1 [Example 57, (R)-3-(tert-butyl)-N-(1-(2-methyl-4-(6-(1-methyl-1H-pyrazol-4-yl)pyrrolo[2,1-f][1,2,4]triazin-4-yl)phenyl)ethyl)-1,2,4-oxadiazole-5-carboxamide] | ≤ 1 nM | 100 to 1000 nM | – |
| COCCOc1cc2c(-c3ccc(CNC(=O)c4noc(C(C)(C)C)n4)c(C)c3)ncnn2c1 [Example 58, 5-(tert-butyl)-N-(4-(6-(2-methoxyethoxy)pyrrolo[2,1-f][1,2,4]triazin-4-yl)-2-methylbenzyl)-1,2,4-oxadiazole-3-carboxamide] | ≤ 1 nM | < 100 nM | – |
| Cc1cc(-c2ncnn3cc(-c4ccn(C)n4)cc23)ccc1CNC(=O)c1noc(C(C)(C)C)n1 [Example 9, 5-(tert-butyl)-N-(2-methyl-4-(6-(1-methyl-1H-pyrazol-3-yl)pyrrolo[2,1-f][1,2,4]triazin-4-yl)benzyl)-1,2,4-oxadiazole-3-carboxamide trifluoroacetate] | ≤ 1 nM | 100 to 1000 nM | – |
| Cc1cc(-c2ncnn3cc(-c4cnn(C)c4)cc23)ccc1CNC(=O)c1noc(C2(C)CC2)n1 [Example 40, N-(2-methyl-4-(6-(1-methyl-1H-pyrazol-4-yl)pyrrolo[2,1-f][1,2,4]triazin-4-yl)benzyl)-5-(1-methylcyclopropyl)-1,2,4-oxadiazole-3-carboxamide] | ≤ 1 nM | 100 to 1000 nM | – |
| CC(C)(C)c1nc(C(=O)NCc2ccc(-c3ncnn4cc(N5CCOCC5)cc34)cc2C2CC2)no1 [Example 37, 5-(tert-butyl)-N-(2-cyclopropyl-4-(6-morpholinopyrrolo[2,1-f][1,2,4]triazin-4-yl)benzyl)-1,2,4-oxadiazole-3-carboxamide] | ≤ 1 nM | > 1000 nM | – |
| Cc1c(CNC(=O)c2nc(C(C)(C)C)no2)ccc(-c2ncnn3cc(N4CCOCC4)cc23)c1F [Example 2, 3-(tert-butyl)-N-(3-fluoro-2-methyl-4-(6-morpholinopyrrolo[2,1-f][1,2,4]triazin-4-yl)benzyl)-1,2,4-oxadiazole-5-carboxamide] | ≤ 1 nM | 100 to 1000 nM | – |
